Key:
Format in all cases: in vivo
[1] = system: Kochia (Kochia scoparia); experiment: Test A preemergence; conditions: for Plant response rating, Kochia: 125 g ai/ha; for Kochia plant response rating (0 to 100 scale, 0 is no effect, 100 is complete control): 500 g ai/ha, visual injury approx. 10 d
Procedure, shortened: (§1)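 Visual injury, scored on a 0–100 scale relative to untreated controls, was recorded about 10 d after application. Treatments were a preemergence soil spray over planted seeds or a postemergence spray on plants at the one- to two-leaf stage, 2 to 10 cm tall, all in loam soil–sand blend in the greenhouse.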

[2] = system: barnyardgrass (Echinochloa crus-galli); experiment: Test A preemergence; conditions: for Plant response rating, Barnyardgrass: 125 g ai/ha; for Barnyardgrass plant response rating (0 to 100 scale, 0 is no effect, 100 is complete control): 500 g ai/ha, visual injury approx. 10 d
Procedure, shortened: as §1

[3] = system: giant foxtail (Setaria faberii); experiment: Test A preemergence; conditions: for Plant response rating, Foxtail, Giant: 125 g ai/ha; for Foxtail, Giant plant response rating (0 to 100 scale, 0 is no effect, 100 is complete control): 500 g ai/ha, visual injury approx. 10 d
Procedure, shortened: as §1

[4] = system: pigweed (Amaranthus retroflexus); experiment: Test A preemergence; conditions: for Plant response rating, Pigweed: 125 g ai/ha; for Pigweed plant response rating (0 to 100 scale, 0 is no effect, 100 is complete control): 500 g ai/ha, visual injury approx. 10 d
[5] = system: ragweed (common ragweed, Ambrosia elatior); experiment: Test A preemergence; conditions: for Plant response rating, Ragweed: 125 g ai/ha
Procedure, shortened: as §1

[6] = system: ryegrass, Italian (Italian ryegrass, Lolium multiflorum); experiment: Test A preemergence; conditions: for Plant response rating, Ryegrass, Italian: 125 g ai/ha; for Ryegrass, Italian plant response rating (0 to 100 scale, 0 is no effect, 100 is complete control): 500 g ai/ha, visual injury approx. 10 d
Procedure, shortened: as §1

[7] = system: Galium (catchweed bedstraw, Galium aparine); experiment: Test A postemergence
Procedure, shortened: as §1

[8] = system: Kochia (Kochia scoparia); experiment: Test A postemergence
Procedure, shortened: as §1

[9] = system: barnyardgrass (Echinochloa crus-galli); experiment: Test A postemergence; conditions: for Barnyardgrass plant response rating: 125 g ai/ha, visual injury rating on 0 to 100 scale (0 no effect, 100 complete control), approx. 10 d; for Plant response rating, Barnyardgrass: 500 g ai/ha
Procedure, shortened: as §1

[10] = system: blackgrass (Alopecurus myosuroides); experiment: Test A postemergence; conditions: for Blackgrass plant response rating: 125 g ai/ha, visual injury rating on 0 to 100 scale (0 no effect, 100 complete control), approx. 10 d; for Plant response rating, Blackgrass: 500 g ai/ha
Procedure, shortened: as §1

[11] = system: corn (Zea mays); experiment: Test A postemergence
Procedure, shortened: as §1

[12] = system: giant foxtail (Setaria faberii); experiment: Test A postemergence
Procedure, shortened: as §1

[13] = system: pigweed (Amaranthus retroflexus); experiment: Test A postemergence
Procedure, shortened: as §1

[14] = system: ragweed (common ragweed, Ambrosia elatior); experiment: Test A postemergence
Procedure, shortened: as §1

[15] = system: ryegrass, Italian (Italian ryegrass, Lolium multiflorum); experiment: Test A postemergence
Procedure, shortened: as §1

[16] = system: wheat (Triticum aestivum); experiment: Test A postemergence
Procedure, shortened: as §1

[17] = system: barnyardgrass (Echinochloa crus-galli); experiment: Test B flooded paddy test; conditions: Flood, 250 g ai/ha; 0 to 100 scale where 0 is no effect and 100 is complete control; 13 to 15 d
Procedure, shortened: (§2)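 Visual ratings (0 none to 100 complete control) are relative to untreated plants, taken 13–15 d after treatment in a greenhouse. Test material went straight into floodwater standing 3 cm above the soil, kept constant, on plants at the 2-leaf stage.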

[18] = system: ducksalad (Heteranthera limosa); experiment: Test B flooded paddy test; conditions: Flood, 250 g ai/ha; 0 to 100 scale where 0 is no effect and 100 is complete control; 13 to 15 d
Procedure, shortened: as §2

[19] = system: rice (Oryra sativa); experiment: Test B flooded paddy test; conditions: Flood, 250 g ai/ha; 0 to 100 scale where 0 is no effect and 100 is complete control; 13 to 15 d
Procedure, shortened: as §2

[20] = system: sedge, umbrella (small-flower umbrella sedge, Cyperus difformis); experiment: Test B flooded paddy test; conditions: Flood, 250 g ai/ha; 0 to 100 scale where 0 is no effect and 100 is complete control; 13 to 15 d
Procedure, shortened: as §2

[21] = Preemergence, visual injury after approximately 10 d, 0 to 100 scale where 0 is no effect and 100 is complete control
[22] = 125 g ai/ha, postemergence, visual rating after approx. 10 d, 0 to 100 scale (0 no effect, 100 complete control)
[23] = Postemergence, 500 g ai/ha, 0 to 100 scale where 0 is no effect and 100 is complete control
[24] = Postemergence, 0 to 100 scale where 0 is no effect and 100 is complete control
[25] = preemergence, 0 to 100 scale (0 no effect, 100 complete control)
[26] = 125 g ai/ha, postemergence, visual injury rating on 0 to 100 scale (0 no effect, 100 complete control), approx. 10 d
[27] = 500 g ai/ha, postemergence, 0 to 100 scale, 0 no effect, 100 complete control
[28] = postemergence, 0 to 100 scale, 0 no effect, 100 complete control

SMILES: COc1c(F)ccc(NC(=O)C2C(=O)NCC2c2cccc(OC(F)(F)C(F)F)c2)c1F (racemic) [Compound 540]
- Plant response rating, Kochia [1, 21]: 0
- Kochia plant response rating (0 to 100 scale, 0 is no effect, 100 is complete control) ([1]; Preemergence): 20
- Plant response rating, Barnyardgrass [2, 21]: 80
- Barnyardgrass plant response rating (0 to 100 scale, 0 is no effect, 100 is complete control) ([2]; Preemergence): 90
- Plant response rating, Foxtail, Giant [3, 21]: 90
- Foxtail, Giant plant response rating (0 to 100 scale, 0 is no effect, 100 is complete control) ([3]; Preemergence): 90
- Plant response rating, Pigweed [4, 21]: 0
- Pigweed plant response rating (0 to 100 scale, 0 is no effect, 100 is complete control) ([4]; Preemergence): 60
- Plant response rating, Ragweed [5, 21]: 0
- Plant response rating, Ryegrass, Italian [6, 21]: 0
- Ryegrass, Italian plant response rating (0 to 100 scale, 0 is no effect, 100 is complete control) ([6]; Preemergence): 40
- Plant response rating, Galium [7, 22]: 60
- Plant response rating, Galium [7, 23]: 70
- Plant response rating, Kochia [8, 22]: 0
- Plant response rating, Kochia [8, 23]: 0
- Barnyardgrass plant response rating ([9]; postemergence): 60
- Plant response rating, Barnyardgrass [9, 24]: 70
- Blackgrass plant response rating ([10]; postemergence): 50
- Plant response rating, Blackgrass [10, 24]: 60
- Plant response rating, Corn [11, 22]: 30
- Plant response rating, Corn [11, 23]: 60
- Plant response rating, Foxtail, Giant [12, 22]: 70
- Plant response rating, Foxtail, Giant [12, 23]: 90
- Plant response rating, Pigweed [13, 22]: 0
- Plant response rating, Pigweed [13, 23]: 0
- Plant response rating, Ragweed [14, 22]: 0
- Plant response rating, Ragweed [14, 23]: 20
- Plant response rating, Ryegrass, Italian [15, 22]: 0
- Plant response rating, Ryegrass, Italian [15, 23]: 30
- Plant response rating, Wheat [16, 22]: 0
- Plant response rating, Wheat [16, 23]: 60
- Plant response rating, Barnyardgrass [17]: 55
- Plant response rating, Ducksalad [18]: 75
- Plant response rating, Rice [19]: 0
- Plant response rating, Sedge, Umbrella [20]: 0

SMILES: CN1CC(c2ccc(F)cc2)C(C(=O)Nc2ccc(F)cc2F)C1=O (centres unmarked) [Compound 440]
- Plant response rating, Kochia [1, 25]: 60
- Kochia plant response rating (0 to 100 scale, 0 is no effect, 100 is complete control) ([1]; Preemergence): 70
- Plant response rating, Barnyardgrass [2, 25]: 90
- Barnyardgrass plant response rating (0 to 100 scale, 0 is no effect, 100 is complete control) ([2]; Preemergence): 100
- Plant response rating, Foxtail, Giant [3, 25]: 90
- Foxtail, Giant plant response rating (0 to 100 scale, 0 is no effect, 100 is complete control) ([3]; Preemergence): 100
- Plant response rating, Pigweed [4, 25]: 20
- Pigweed plant response rating (0 to 100 scale, 0 is no effect, 100 is complete control) ([4]; Preemergence): 80
- Plant response rating, Ragweed [5, 25]: 20
- Ragweed plant response rating (0 to 100 scale, 0 is no effect, 100 is complete control) ([5]; Preemergence, 500 g ai/ha, visual injury approx. 10 d): 40
- Plant response rating, Ryegrass, Italian [6, 25]: 0
- Ryegrass, Italian plant response rating (0 to 100 scale, 0 is no effect, 100 is complete control) ([6]; Preemergence): 50
- Galium plant response rating [7, 26]: 40
- Plant response rating, Galium [7, 27]: 40
- Kochia plant response rating [8, 26]: 30
- Plant response rating, Kochia [8, 27]: 40
- Barnyardgrass plant response rating ([9]; postemergence): 90
- Plant response rating, Barnyardgrass [9, 28]: 90
- Blackgrass plant response rating ([10]; postemergence): 30
- Plant response rating, Blackgrass [10, 28]: 50
- Corn plant response rating [11, 26]: 0
- Plant response rating, Corn [11, 27]: 20
- Foxtail, Giant plant response rating [12, 26]: 90
- Plant response rating, Foxtail, Giant [12, 27]: 90
- Pigweed plant response rating [13, 26]: 0
- Plant response rating, Pigweed [13, 27]: 20
- Ragweed plant response rating [14, 26]: 0
- Plant response rating, Ragweed [14, 27]: 0
- Ryegrass, Italian plant response rating [15, 26]: 0
- Plant response rating, Ryegrass, Italian [15, 27]: 60
- Wheat plant response rating [16, 26]: 0
- Plant response rating, Wheat [16, 27]: 50
- Plant response rating, Barnyardgrass [17]: 70
- Plant response rating, Ducksalad [18]: 95
- Plant response rating, Rice [19]: 0
- Plant response rating, Sedge, Umbrella [20]: 0

Reference: patent publication US12077503B2, “Substituted cyclic amides and their use as herbicides” (FMC CORPORATION, priority 2015, dated 2024)
